Data on twelve compounds can be found in ChEMBL document CHEMBL1201862, “PubChem BioAssay data set” (2004).

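Briefly, cells in 96-well plates were exposed to five compound concentrations for 48 h, and endpoints were estimated by linear interpolation. GI50 = concentration required for 50% inhibition of growth.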 The source made the active and inactive calls. Rule as the data show it: active = GI50 up to about 1.1 µM and inactive = higher.

Some test systems named below: ACHN; CAKI-1; CCRF-CEM; EKVX; HCC 2998; HCT-116; HL-60; HOP-62; HOP-92; K562; LOX IMVI; MOLT-4; SF-539; SK-MEL-2; SK-MEL-5; SK-OV-3; SN12C; SW-620; SR.
What all share (test): growth of human tumour cells (NCI), 48 h

For `N=c1oc2cc(O)c(O)cc2cc1C(N)=O`, the GI50 in the assay on ACHN is > 100 µM (inactive); with CAKI-1, > 100 µM (inactive); in the assay with CCRF-CEM, 33 µM (inactive); in the assay with EKVX it was > 100 µM (inactive); with HCC 2998 it was > 100 µM (inactive); in the assay on HCT-116 it was > 100 µM (inactive). Moreover, the GI50 with HL-60 was > 10 µM (inactive); with HOP-62 it was > 100 µM (inactive); with HOP-92, > 100 µM (inactive); with K562 it was > 100 µM (inactive); with LOX IMVI, > 100 µM (inactive); in the assay with MOLT-4, 84.9 µM (inactive). Besides, the GI50 in the assay with SF-539, with SK-MEL-2, in the assay on SK-MEL-5, in the assay on SK-OV-3, in the assay with SN12C and with SW-620 was > 100 µM (inactive) throughout.

Regarding `O=C(/C=C/c1ccccc1O)c1cccs1`, the GI50 in the assay on ACHN, in the assay with CAKI-1, in the assay on CCRF-CEM, in the assay on EKVX, with HCC 2998 and in the assay on HCT-116 was > 100 µM (inactive) each time. Also, the GI50 in the assay on HL-60, in the assay on HOP-62, in the assay with K562, in the assay with LOX IMVI, in the assay with MOLT-4 and in the assay on SF-539 was > 100 µM (inactive) each time. Besides, the GI50 in the assay with SK-MEL-2, in the assay with SK-MEL-5, with SK-OV-3, in the assay with SN12C, in the assay on SR and with SW-620 was > 100 µM (inactive) each time.

On to `COc1ccc(C)cc1C1CCC(=O)O1` (stereo not given), for which the GI50 with ACHN, in the assay on CCRF-CEM, with EKVX, in the assay on HCC 2998, in the assay on HCT-116 and in the assay with HL-60 was > 100 µM (inactive) throughout. Moreover, the GI50 in the assay with HOP-62, in the assay with K562, with LOX IMVI, in the assay on MOLT-4, with SF-539 and in the assay on SK-MEL-2 was > 100 µM (inactive) in each case. Further, the GI50 in the assay on SK-MEL-5, in the assay with SK-OV-3, in the assay with SN12C, with SR and in the assay with SW-620 was > 100 µM (inactive) throughout.

For the compound `O=C1C(=O)N(c2cc(Cl)ccc2Cl)C(=O)C(=O)C1c1nc2ccccc2o1`, the GI50 with ACHN was > 100 µM (inactive); in the assay with CAKI-1 it was > 100 µM (inactive); in the assay on CCRF-CEM, 30.2 µM (inactive); in the assay with EKVX, > 100 µM (inactive); in the assay on HCC 2998, > 100 µM (inactive); with HCT-116, > 100 µM (inactive). Further, the GI50 was 39.1 µM (inactive) in the assay with HL-60; > 100 µM (inactive) in the assay on HOP-62; > 100 µM (inactive) in the assay on HOP-92; 61.1 µM (inactive) in the assay with K562; > 100 µM (inactive) in the assay with LOX IMVI; 30.1 µM (inactive) with MOLT-4. The GI50 in the assay with SF-539, in the assay with SK-MEL-2, in the assay on SK-MEL-5, in the assay on SK-OV-3, with SN12C and with SW-620 was > 100 µM (inactive) each time.

In the case of `CC1NOC(=O)C1/N=N/c1ccccc1Cl` (stereo not given), the GI50 is 27 µM (inactive) with ACHN; 25.5 µM (inactive) in the assay with CAKI-1; 40.9 µM (inactive) in the assay with CCRF-CEM; 88.9 µM (inactive) in the assay with EKVX; 48.3 µM (inactive) in the assay on HCC 2998; 37.2 µM (inactive) in the assay with HCT-116. Also, the GI50 with HL-60 is 20 µM (inactive); in the assay with HOP-62, 92.3 µM (inactive); with HOP-92 it was 21.6 µM (inactive); in the assay on K562, 40.7 µM (inactive); in the assay with LOX IMVI, 20.6 µM (inactive); in the assay on MOLT-4, > 10 µM (inactive). For the same compound, the GI50 in the assay with SF-539 is 24.5 µM (inactive); with SK-MEL-2, 25.4 µM (inactive); in the assay on SK-MEL-5 it was 13.8 µM (inactive); in the assay with SK-OV-3 it was 28.3 µM (inactive); in the assay on SN12C, 40.6 µM (inactive); in the assay with SW-620, > 100 µM (inactive).

Regarding `C/C(=C\c1ccccc1)C(O)C(=O)c1nc2ccc(Cl)cc2nc1O` (stereo not given), the GI50 is > 100 µM (inactive) in the assay on ACHN; > 100 µM (inactive) in the assay with CAKI-1; 13.6 µM (inactive) in the assay on CCRF-CEM; 91.2 µM (inactive) with EKVX; > 100 µM (inactive) with HCC 2998; > 100 µM (inactive) in the assay on HCT-116. For the same compound, the GI50 is 27 µM (inactive) in the assay with HL-60; > 100 µM (inactive) in the assay with HOP-62; 55.5 µM (inactive) in the assay with K562; > 100 µM (inactive) in the assay with LOX IMVI; 48.3 µM (inactive) in the assay on MOLT-4; > 100 µM (inactive) in the assay with SF-539. Besides, the GI50 was > 100 µM (inactive) with SK-MEL-2; > 100 µM (inactive) in the assay with SK-MEL-5; > 100 µM (inactive) in the assay with SK-OV-3; > 100 µM (inactive) in the assay on SN12C; 25.1 µM (inactive) in the assay on SR; > 100 µM (inactive) with SW-620.

For `CN(C)/C(=N\C#N)N(Cc1ccccc1)Cc1ccccc1`, the GI50 was > 100 µM (inactive) with ACHN; > 100 µM (inactive) in the assay with CAKI-1; 44.2 µM (inactive) in the assay with CCRF-CEM; > 100 µM (inactive) in the assay with EKVX; 72.1 µM (inactive) in the assay with HCC 2998; 53.5 µM (inactive) in the assay on HCT-116. Further, the GI50 was 44.3 µM (inactive) with HL-60; > 100 µM (inactive) in the assay with HOP-62; 36.3 µM (inactive) in the assay on HOP-92; 17.9 µM (inactive) in the assay with K562; 36.6 µM (inactive) with LOX IMVI; > 100 µM (inactive) in the assay on SF-539. Besides, the GI50 with SK-MEL-2 is > 100 µM (inactive); in the assay with SK-MEL-5, > 100 µM (inactive); in the assay on SK-OV-3, > 100 µM (inactive); in the assay on SN12C, > 100 µM (inactive); in the assay on SW-620, 17.9 µM (inactive).

Consider `CC(=O)c1ccc2c(c1)c1c(C)c3c[n+](C)ccc3c(C)c1n2C`, for which the GI50 in the assay on CAKI-1 was 6.92 µM (inactive); in the assay on CCRF-CEM, 3.76 µM (inactive); in the assay on EKVX, 33.3 µM (inactive); with HCC 2998, 29.5 µM (inactive); in the assay on HCT-116, 2.29 µM (inactive); with HL-60 it was 8.75 µM (inactive). In addition, the GI50 was 7.36 µM (inactive) in the assay with HOP-62; 11.8 µM (inactive) in the assay with HOP-92; 14.8 µM (inactive) in the assay with K562; 4.63 µM (inactive) in the assay on LOX IMVI; 0.641 µM (active) in the assay with MOLT-4; 2.37 µM (inactive) with SF-539. For the same compound, the GI50 in the assay on SK-MEL-2 is 7.14 µM (inactive); in the assay with SK-MEL-5, 4.73 µM (inactive); in the assay with SK-OV-3 it was 16.1 µM (inactive); with SN12C, 0.499 µM (active); in the assay on SW-620, 1.03 µM (active).

In the case of `Cc1nc(N)nn1C1OCC(O)C(O)C1O` (stereo not given), the GI50 in the assay with ACHN, in the assay on CAKI-1, with CCRF-CEM, in the assay with EKVX, in the assay with HCC 2998 and in the assay on HCT-116 was > 100 µM (inactive) in each case. Also, the GI50 with HL-60, in the assay on HOP-62, in the assay on K562, in the assay on MOLT-4, in the assay with SF-539 and in the assay with SK-MEL-2 was > 100 µM (inactive) in each case. For the same compound, the GI50 with SK-MEL-5, in the assay on SK-OV-3, with SN12C and in the assay with SW-620 was > 100 µM (inactive) each time.

As to `c1ccc(N2N=C(c3ccco3)CC2c2ccco2)cc1` (stereo not given), the GI50 was 42.6 µM (inactive) in the assay with ACHN; 42.3 µM (inactive) in the assay on CCRF-CEM; 98.9 µM (inactive) in the assay with EKVX; 32.5 µM (inactive) in the assay on HCT-116; 25.2 µM (inactive) with HL-60; > 100 µM (inactive) in the assay with HOP-62. Besides, the GI50 in the assay with K562 was 34.3 µM (inactive); with LOX IMVI, > 100 µM (inactive); in the assay with MOLT-4, 20.5 µM (inactive); in the assay on SF-539 it was > 100 µM (inactive); with SK-MEL-2, > 100 µM (inactive); in the assay with SK-MEL-5, 51.4 µM (inactive). The GI50 in the assay with SN12C was > 100 µM (inactive); with SR it was 30.3 µM (inactive); with SW-620 it was > 100 µM (inactive).

Take `COCC1N=C(c2ccc(OC)c(OCc3ccccc3)c2OC)O[C@H]1c1ccccc1` (stereo not given in full): the GI50 in the assay with ACHN was 12.9 µM (inactive); in the assay with CCRF-CEM, 15.3 µM (inactive); in the assay with EKVX it was 34 µM (inactive); in the assay with HCC 2998 it was 35.6 µM (inactive); in the assay with HCT-116 it was 11.9 µM (inactive); in the assay on HL-60 it was 15.2 µM (inactive). In addition, the GI50 was 37.2 µM (inactive) in the assay on HOP-62; 13.1 µM (inactive) in the assay on HOP-92; 12.3 µM (inactive) in the assay on K562; 13.9 µM (inactive) with LOX IMVI; 5.81 µM (inactive) with MOLT-4; 17.4 µM (inactive) in the assay on SF-539. Besides, the GI50 in the assay on SK-MEL-2 is 23.4 µM (inactive); with SK-MEL-5, 11.9 µM (inactive); in the assay with SK-OV-3, 46.6 µM (inactive); with SN12C, 20.5 µM (inactive); in the assay with SW-620 it was 34.8 µM (inactive).

Regarding `C1=CC(=NN=P(c2ccccc2)(c2ccccc2)c2ccccc2)C=C1`, the GI50 in the assay on ACHN was > 100 µM (inactive); with CAKI-1, > 100 µM (inactive); with CCRF-CEM, > 100 µM (inactive); in the assay with EKVX, > 100 µM (inactive); with HCC 2998, > 100 µM (inactive); in the assay on HL-60, 98.2 µM (inactive). Moreover, the GI50 is > 100 µM (inactive) in the assay with HOP-62; 55.2 µM (inactive) with HOP-92; 64 µM (inactive) with K562; > 100 µM (inactive) in the assay with LOX IMVI; > 100 µM (inactive) in the assay on MOLT-4; > 100 µM (inactive) in the assay with SK-MEL-2. The GI50 in the assay on SK-MEL-5, in the assay on SK-OV-3, in the assay with SN12C and in the assay on SW-620 was > 100 µM (inactive) in each case.
